The values below are quoted from earlier work in patent publication USRE41489E1 (priority 1997, dated 2010).

A word on the Cmax: it is the maximum level reached in the sampled fluid or tissue. Usually Tmax stands for the time at which the peak concentration occurs.

Like-named read-outs stand apart in the source and are kept apart here.

For data set [1] the following is noted: parenteral, on a weight basis.
For data set [2] the following is noted: conscious postoperative patients.
Experiment in data set [3]: not given
This is another data set of the same source.

For data set [4] the following is noted: rats.
Data set [5] has as its target δ receptors (Homo sapiens, UniProt P41143).
The test system of data set [6] is plasma proteins.
The conditions of data set [7]: estimated.
[8] abbreviates: intravenous single dose of about 0.3 mg.

Sequence of δ receptors (P41143 whole entry): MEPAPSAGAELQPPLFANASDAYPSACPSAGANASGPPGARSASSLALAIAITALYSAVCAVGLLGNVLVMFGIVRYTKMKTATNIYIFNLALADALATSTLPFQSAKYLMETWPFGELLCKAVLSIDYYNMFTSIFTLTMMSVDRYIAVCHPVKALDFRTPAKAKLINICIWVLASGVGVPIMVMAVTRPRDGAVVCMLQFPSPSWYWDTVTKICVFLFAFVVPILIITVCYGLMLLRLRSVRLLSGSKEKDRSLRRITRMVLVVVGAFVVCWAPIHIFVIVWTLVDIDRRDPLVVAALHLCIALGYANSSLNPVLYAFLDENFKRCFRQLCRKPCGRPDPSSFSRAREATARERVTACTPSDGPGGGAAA

Consider `CO[C@]12CC[C@@]3(C[C@@H]1[C@](C)(O)C(C)(C)C)[C@H]1Cc4ccc(O)c5c4[C@@]3(CCN1CC1CC1)[C@H]2O5` [buprenorphine, 21-cyclopropyl-7-[(S)-1-hydroxy-1,2,2-trimethylpropyl]-6,14-endo-ethano-6,7,8,14-tetrahydrooripavine], for which the “analgesic potency relative to meperidine” value in data set [1] is listed as “about 600 times”. Moreover, in data set [1], the “analgesic potency relative to pentazocine” value was “about 200 times”. The Cmax by setting is: (0.4 mg sublingual single dose) 0.50 ± 0.06 ng/mL; (0.8 mg sublingual single dose) 1.04 ± 0.27 ng/mL. For the same compound, the Tmax was 3.5 ± 0.667 h (0.4 mg sublingual single dose) and 3.2 ± 0.817 h (0.8 mg sublingual single dose). In addition, the systemic availability reads like this: (0.4 mg sublingual single dose) 57.7%; (0.8 mg sublingual single dose) 54.1%. Further, the total plasma clearance entry in data set [2] was “approximately 1.28 l/minute”. Also, in data set [3] (intramuscular second 0.3-mg dose 3 hours after the initial intravenous dose), the “mean peak plasma buprenorphine concentration” value is “about 3.6 ng/ml”. For the same compound, the plasma concentration entry in data set [3] (intramuscular second 0.3-mg dose, after about 3 hours) is “about 0.4 ng/ml”; in data set [3] (intravenous about 0.3 mg, after about 5 minutes), “about 9 ng/ml”; in data set [3] (intravenous about 0.3 mg, after about 3 hours), “about 0.4 ng/ml”. For the same compound, the “mean peak plasma drug concentration” value in data set [3] (setting [8]) is on record as “about 18 ng/ml”. In data set [3] (setting [8]), the “time of mean peak plasma concentration” value is ≤ 2 min. Also, the “time to highest concentrations in the liver” value was ≤ 40 min in data set [4] (intramuscular administration) and ≤ 10 min in data set [4] (oral administration). Besides, the “binding affinity to δ receptors” value in data set [5] was “lower affinity”. For the same compound, the “bound to plasma proteins” value in data set [6] is “approximately 96%”. In data set [7], the oral bioavailability is 15%.
